# According to patent publication US20100113544A1, “Suppressant for cerebral infarction attributed to long-time ischemia” (Ehime University, priority 2004, published 2010):
# Marks after values point to notes of the source that are not given here.
# Legend:
# [1] = tested on: cerebral infarction after 2 hours middle cerebral artery occlusion in male Wistar rats; assay: Size of cerebral infarction (triphenyltetrazolium chloride staining, planimetry) 24 h after reperfusion following 2 h middle cerebral artery occlusion; format: in vivo, rat; settings: for size of cerebral infarction, Cerebral cortex / size of cerebral infarction, Striatum / size of cerebral infarction, Total: mean ± SD
# From the text: These rats were anesthetized with a gas mixture of 2% halothane, 49% oxygen and 49% laughing gas, i.e. N2O, and kept under spontaneous breathing. Subsequently, a median incision was made in the neck of the rat placed on its back, and the right common carotid artery was exposed. After an intraperitoneal injection of 100 units of heparin, the root of the right middle cerebral artery was occluded by inserting 4·0 nylon thread coated with silicone into the right internal carotid artery from the bifurcation of the internal and external carotid arteries. The tip of the nylon thread was placed 18 mm from the bifurcation. After suture of the incision of the skin, the rats were allowed to recover from anesthesia. During surgery, an electronic thermometer was inserted into the rectum, and the temperature of the rectum was maintained at 37.0±0.1° C. with a lamp.
# Five minutes before reperfusion of blood flow, the rats were anesthetized again. After opening the skin suture, the cerebral blood flow was resumed by removing the nylon thread by 5 mm 2 hours after middle cerebral artery occlusion. […] After recovery from anesthesia, the rats were allowed to access food and water freely.
# Twenty-four hours after recovery of blood flow, sodium pentobarbital was intraperitoneally administered to the rats for anesthesia. Subsequently, the brain was perfused with heparinized-physiological saline, and the rat was decapitated. The brain was quickly taken out, and rinsed in physiological saline. The brain was sliced coronally between the optic chiasm and the caucal edge of the mammillary body at a thickness of 2 mm. These brain slices were subjected to incubation with 2% triphenyltetrazolium chloride in phosphate buffer (0.1 mol/L, pH 7.4) at 37° C. As a result, due to the action of dehydrogenase present in viable cells, triphenyltetrazolium chloride was reduced, and the tissue was stained in dark red. On the other hand, the dead tissue in the infarcted area was not stained. These brain slices were preserved in phosphate-buffered formalin overnight. […] The obtained size of cerebral infarction was subjected to analysis of variance and the Scheffe test.
# The values in the table (unit: mm^3) indicate the size of cerebral infarction as the “mean ±standard deviation”, while “*” denotes a case in which it was significant versus the control group by p<0.05, and “**” denotes a case in which it was significant versus the control group by p<0.01.
# [2] = tested on: neutrophils; assay: Number of neutrophils in brain sections (myeloperoxidase immunohistochemistry) after 2 h middle cerebral artery occlusion and reperfusion; format: in vivo, rat; settings: for number of neutrophils, +0.7 mm to the bregma / number of neutrophils, +1.7 mm to the bregma / number of neutrophils, −0.3 mm to the bregma: 1000 mg/kg i.p. twice
# Experimental: (§1) One of the causes for organ dysfunction resulting from ischemia is reperfusion injury after recovery of blood flow, and the inflammatory response is an important factor which induces reperfusion injury. Therefore, as an index of inflammation subsequent to reperfusion of blood flow, the numbers of neutrophils and macrophages were determined.
# (§2) Thirty-two male Wistar rats weighting about 300 g were divided into 4 groups with 8 rats in each. The middle cerebral artery of all rats was occluded for two hours, as shown in Example 1. […] Subsequently, 12 or 24 hours after recovery of blood flow, the brain was taken out after perfusion with physiological saline. Frozen sections having 6 μm thick was prepared at a distance of about 1.7 mm rostral to the bregma, i.e. anterior fontanel, 0.7 mm rostral to the bregma toward the rostral side, and 0.3 mm caudal to the bregma.
# After observing these frozen sections by light microscopy, the total numbers of neutrophils on the ischemic and non-ischemic sides were obtained rseparately. Also, frozen sections obtained from identical rats were subjected to immunochemistry with an antibody for ED1 which is a cell surface marker of macrophages. […] Therefore, with regard to ED1-positive cells, the difference in the number of cells between the ischemic and non-ischemic sides was calculated. The difference was determined as the number of macrophages and compared between each corresponding group.
# [3] = tested on: ED1-positive cells (macrophages); assay: Number of ED1-positive cells / macrophages in brain sections (ED1 immunohistochemistry) after 2 h middle cerebral artery occlusion and reperfusion; format: in vivo, rat; settings: for number of ED1-positive cells: versus control; for number of ED1-positive cells, Differences (number of macrophages), +0.7 mm to the bregma / number of ED1-positive cells, Differences (number of macrophages), +1.7 mm to the bregma / number of ED1-positive cells, Differences (number of macrophages), −0.3 mm to the bregma: difference between ischemic and non-ischemic sides; for number of ED1-positive cells, Differences (number of macrophages), +0.7 mm to the bregma / number of ED1-positive cells, Differences (number of macrophages), +1.7 mm to the bregma / number of ED1-positive cells, Differences (number of macrophages), −0.3 mm to the bregma / number of ED1-positive cells, +0.7 mm to the bregma / number of ED1-positive cells, +1.7 mm to the bregma / number of ED1-positive cells, −0.3 mm to the bregma: 1000 mg/kg i.p. twice
# Experimental: as §1, §2
# After observing these frozen sections by light microscopy, the total numbers of neutrophils on the ischemic and non-ischemic sides were obtained rseparately. Also, frozen sections obtained from identical rats were subjected to immunochemistry with an antibody for ED1 which is a cell surface marker of macrophages. ED1 is considered to exist in cells besides macrophages, and in fact, ED1-positive cells were also observed on the non-ischemic side in the experiment. However, as in Table 2, neutrophils were not observed on non-ischemia side, where inflammation was not observed. Therefore, with regard to ED1-positive cells, the difference in the number of cells between the ischemic and non-ischemic sides was calculated. The difference was determined as the number of macrophages and compared between each corresponding group. In Tables 2 and 3, “*” denotes a case in which significant differences versus the control group were observed by p<0.05 by Fisher's PLSD (protected least significant difference) tests, and “**” denotes a case in which significant difference was observed by p<0.01.
# [4] = tested on: pyramidal neurons in the hippocampal CA-1 region; settings: administration prior to transient ischemia (5 or 10 minutes forebrain ischemia), rat; cited from earlier work
# [5] = tested on: neurons in the rat striatum; settings: administered 4 times: immediately, 6, 24 and 48 hours after 15 minutes of transient ischemia, rats; cited from earlier work
# [6] = patients who received the drug; cited from earlier work
# [7] = administration after ischemia, 200 mg/kg i.p. immediately and 6 h after reperfusion
# [8] = administration after ischemia, 500 mg/kg i.p. immediately and 6 h after reperfusion
# [9] = administration after ischemia, 1000 mg/kg i.p. immediately and 6 h after reperfusion
# [10] = administration before ischemia, 1000 mg/kg i.p. once 10 min before occlusion, 24 h after reperfusion
# [11] = 12 hours after onset of reperfusion, ischemic side
# [12] = 12 hours after onset of reperfusion, non-ischemic side
# [13] = 24 hours after onset of reperfusion, ischemic side
# [14] = 24 hours after onset of reperfusion, non-ischemic side
# [15] = 12 hours after the onset of reperfusion
# [16] = 12 hours after the onset of reperfusion, ischemic side
# [17] = 12 hours after the onset of reperfusion, non-ischemic side
# [18] = 24 hours after the onset of reperfusion
# [19] = 24 hours after the onset of reperfusion, ischemic side
# [20] = 24 hours after the onset of reperfusion, non-ischemic side
structure (smiles),measurement,setting,value
N[C@@H](Cc1c[nH]cn1)C(=O)O [histidine],infarcted volume compared with that of the control group,[1]; 200 mg/kg immediately after reperfusion and 6 hours thereafter,71%
same,infarcted volume compared with that of the control group,[1]; 500 mg/kg immediately after reperfusion and 6 hours thereafter,39%
same,infarcted volume compared with that of the control group,[1]; 1000 mg/kg immediately after reperfusion and 6 hours thereafter,7%
same,"size of cerebral infarction, Cerebral cortex",[1]; [7],78.8 ± 52.3 mm^3
same,"size of cerebral infarction, Striatum",[1]; [7],34.3 ± 23.0 mm^3
same,"size of cerebral infarction, Total",[1]; [7],113.2 ± 74.0 mm^3
same,"size of cerebral infarction, Cerebral cortex",[1]; [8],39.9 ± 44.5 mm^3
same,"size of cerebral infarction, Striatum",[1]; [8],19.1 ± 24.4** mm^3
same,"size of cerebral infarction, Total",[1]; [8],59.0 ± 63.4* mm^3
same,"size of cerebral infarction, Cerebral cortex",[1]; [9],7.5 ± 13.3** mm^3
same,"size of cerebral infarction, Striatum",[1]; [9],3.3 ± 12.8** mm^3
same,"size of cerebral infarction, Total",[1]; [9],10.7 ± 14.5** mm^3
same,"size of cerebral infarction, Cerebral cortex",[1]; [10],81.4 ± 26.0 mm^3
same,"size of cerebral infarction, Striatum",[1]; [10],34.4 ± 16.0 mm^3
same,"size of cerebral infarction, Total",[1]; [10],115.8 ± 39.2 mm^3
same,size of infarction compared with that of the control group,[1]; pre-ischemic histidine 1000 mg/kg administration group,no significant difference
same,neutrophil infiltration,"[2]; 12 hours after ischemia, histidine-administration group versus control",significantly suppressed
same,"number of neutrophils, +0.7 mm to the bregma",[2]; [11],128 ± 82
same,"number of neutrophils, +1.7 mm to the bregma",[2]; [11],101 ± 80
same,"number of neutrophils, −0.3 mm to the bregma",[2]; [11],106 ± 54
same,"number of neutrophils, +0.7 mm to the bregma",[2]; [12],0 ± 0
same,"number of neutrophils, +1.7 mm to the bregma",[2]; [12],1 ± 2
same,"number of neutrophils, −0.3 mm to the bregma",[2]; [12],0 ± 0
same,"number of neutrophils, +0.7 mm to the bregma",[2]; [13],250 ± 169
same,"number of neutrophils, −0.3 mm to the bregma",[2]; [13],287 ± 162
same,"number of neutrophils, +0.7 mm to the bregma",[2]; [14],0 ± 0
same,"number of neutrophils, +1.7 mm to the bregma",[2]; [14],1 ± 2
same,"number of neutrophils, −0.3 mm to the bregma",[2]; [14],0 ± 0
same,number of ED1-positive cells,"[3]; 12 hours after ischemia for 2 hours, cross section at +0.7 mm rostral to the bregma",significantly decreased
same,"number of ED1-positive cells, Differences (number of macrophages), +0.7 mm to the bregma",[3]; [15],123 ± 100*
same,"number of ED1-positive cells, Differences (number of macrophages), +1.7 mm to the bregma",[3]; [15],135 ± 101
same,"number of ED1-positive cells, Differences (number of macrophages), −0.3 mm to the bregma",[3]; [15],92 ± 107
same,"number of ED1-positive cells, +0.7 mm to the bregma",[3]; [16],450 ± 190
same,"number of ED1-positive cells, +1.7 mm to the bregma",[3]; [16],366 ± 149
same,"number of ED1-positive cells, −0.3 mm to the bregma",[3]; [16],363 ± 186
same,"number of ED1-positive cells, +0.7 mm to the bregma",[3]; [17],328 ± 113
same,"number of ED1-positive cells, +1.7 mm to the bregma",[3]; [17],238 ± 95
same,"number of ED1-positive cells, −0.3 mm to the bregma",[3]; [17],309 ± 72
same,number of ED1-positive cells,"[3]; 24 hours after ischemia, all cross sections",significant decreases
same,"number of ED1-positive cells, Differences (number of macrophages), +0.7 mm to the bregma",[3]; [18],141 ± 104*
same,"number of ED1-positive cells, Differences (number of macrophages), +1.7 mm to the bregma",[3]; [18],125 ± 72*
same,"number of ED1-positive cells, Differences (number of macrophages), −0.3 mm to the bregma",[3]; [18],190 ± 93*
same,"number of ED1-positive cells, +0.7 mm to the bregma",[3]; [19],264 ± 101
same,"number of ED1-positive cells, +1.7 mm to the bregma",[3]; [19],230 ± 57
same,"number of ED1-positive cells, −0.3 mm to the bregma",[3]; [19],340 ± 107
same,"number of ED1-positive cells, +0.7 mm to the bregma",[3]; [20],124 ± 34
same,"number of ED1-positive cells, +1.7 mm to the bregma",[3]; [20],104 ± 28
same,"number of ED1-positive cells, −0.3 mm to the bregma",[3]; [20],150 ± 46
same,programmed death (delayed neuronal death) of neurons,[4],depressed
same,neuronal death 7 days after ischemia caused by apoptosis,[5],depressed
CC1=NN(c2ccccc2)C(=O)C1 [edaravone],patients who showed abnormal values in laboratory tests on the liver function,[6],21.4%
